Patent publication US20150023887A1, “Antiperspirant Spray Devices and Compositions” (The Procter & Gamble Company, priority 2013, published 2015)

From the text: (§1) Solubility may be determined by measuring the amount of light transmittance (a light transmittance value) through a simple mixture of the non-volatile silicone fluid and liquid activation enhancer at the same weight/weight concentrations as in a final antiperspirant composition.
as §1, with “Solubility of a liquid activation enhancer in a non-volatile silicone” for “Solubility”, “(light” for “(a light”
The Spectronic Genesys 10 Vis utilizes a tungsten-halogen light source and has a spectral bandwidth of 5 nm, a wavelength range of 325 to 1100 nm, accuracy of ±1 nm and a repeatability of ±0.5 nm. Readouts include absorbance, transmittance and concentration. The spectrophotometer is set to 640 nm wavelength and the percent transmittance mode/readout. Polystyrene spectrometer cuvettes having a 1 cm optical light path and transmittance between ˜340 nm and ˜900 nm are used. One suitable example of a spectrometer cuvette is available from VWR International LLC under Catalog #97000-584 having a 2.5 to 4.5 ml capacity. The spectrophotometer is calibrated according to the manufacturer's instructions using a reference cuvette and composition comprised of just the non-volatile silicone fluid of interest. For example, if the test composition comprises 50 centistoke dimethicone and 15% w/w of isopropyl myristate, then the spectrometer is calibrated using a cuvette containing just 50 centistoke dimethicone. Sample cuvettes are filled sufficiently with a test composition of a non-volatile silicone fluid and liquid activation enhancer so that the light path of the spectrophotometer passes through the test composition in the cuvette. The sample cuvettes are shaken well just prior to taking a light transmittance reading.

Row | light transmittance value | Molecule | solubility in 50 centistoke dimethicone
1 | about 100% | CCCCCCCCCCCCCCCCCC(=O)OCCCC [butyl stearate] | 
2 | about 100% | CCCCCCCCCCCCCC(C)C [isohexadecane] | soluble in 50 centistoke dimethicone across the 2% to 30% w/w concentration range
3 | about 101% | CCCCCCCCCCCCCC(=O)OC(C)C [isopropyl myristate] | 
4 | about 101% | CCCCCCCCCCCCCCCC(=O)OC(C)C [isopropyl palmitate] | 
5 |  | CCCCCCCCCCC(CO)CCCCCCCC (centres unmarked) [octyldodecanol] | soluble in the 50 centistoke dimethicone at some (lower) concentrations
6 |  | PPG-14 butyl ether | insoluble in 50 centistoke dimethicone across the 2% to 30% w/w concentration range
7 |  | mineral oil | soluble in 50 centistoke dimethicone at some (lower) concentrations
